Experiment [1] has as its target CMV-polymerase (Human cytomegalovirus (strain AD169) (HHV-5) (Human herpesvirus 5), UniProt P08546). The experiment can be described thus: biochemical.
The test system of experiment [2] is CMV. The experiment is described as follows: microbe, parasite or virus in culture. In kind it is cell-based. As to conditions: Human betaherpesvirus 5, 72 h, read-out: CMV-Luc Cellular EC50, NN-NHDF cells, MOI 1, 72 hrs.
[3] abbreviates: read-out: CMV-polymerase Biochemical IC50.

In general, IC50 refers to the concentration needed to halve the response being measured. A word on the EC50: it is the concentration giving half of the maximal effect.

Read-outs that look alike come from different tables or passages of the source.

In the case of `CN(CCO)S(=O)(=O)C1(CN2CCc3c(C(=O)NCc4ccc(Cl)cc4)nn(C)c3C2=O)CC1` [Example 144, N-(4-Chlorobenzyl)-6-((1-(N-(2-hydroxyethyl)-N-methylsulfamoyl)cyclopropyl)methyl)-1-methyl-7-oxo-4,5,6,7-tetrahydro-1H-pyrazolo[3,4-c]pyridine-3-carboxamide], in experiment [1] (setting [3]), the IC50 worked out at 4 nM. In experiment [2], the EC50 turned out to be 44 nM.
The like results for `Cn1nc(C(=O)NCc2ccc(C#N)cc2)c2c1C(=O)N(CC1(S(=O)(=O)NCCO)CC1)CC2` [Example 145, N-(4-Cyanobenzyl)-6-((1-(N-(2-hydroxyethyl)sulfamoyl)cyclopropyl)methyl)-1-methyl-7-oxo-4,5,6,7-tetrahydro-1H-pyrazolo[3,4-c]pyridine-3-carboxamide] were, in that order, 14 nM and 303 nM.
The like results for `CN(CCO)S(=O)(=O)C1(CN2CCc3c(C(=O)NCc4ccc(C#N)cc4)nn(C)c3C2=O)CC1` [Example 146, N-(4-Cyanobenzyl)-6-((1-(N-(2-hydroxyethyl)-N-methylsulfamoyl)cyclopropyl)methyl)-1-methyl-7-oxo-4,5,6,7-tetrahydro-1H-pyrazolo[3,4-c]pyridine-3-carboxamide] were, in that order, 3 nM and 61 nM.
The like results for `CN(C(CO)CO)S(=O)(=O)C1(CN2CCc3c(C(=O)NCc4ccc(C#N)cc4)nn(C)c3C2=O)CC1` [Example 147, N-(4-Cyanobenzyl)-6-((1-(N-(1,3-dihydroxypropan-2-yl)-N-methylsulfamoyl)cyclopropyl)methyl)-1-methyl-7-oxo-4,5,6,7-tetrahydro-1H-pyrazolo[3,4-c]pyridine-3-carboxamide] were, in that order, 30 nM and 604 nM.
Regarding `Cn1nc(C(=O)NCc2ccc(Cl)cc2)c2c1C(=O)N(CC1(S(=O)(=O)NC(C)(C)CO)CC1)CC2` [Example 148, N-(4-Chlorobenzyl)-6-((1-(N-(1-hydroxy-2-methylpropan-2-yl)sulfamoyl)cyclopropyl)methyl)-1-methyl-7-oxo-4,5,6,7-tetrahydro-1H-pyrazolo[3,4-c]pyridine-3-carboxamide], the IC50 in experiment [1] (setting [3]) was 15 nM. Further, the EC50 in experiment [2] turned out to be 139 nM.
Regarding `Cn1nc(C(=O)NCc2ccc(C#N)cc2)c2c1C(=O)N(CC1(S(=O)(=O)NC(C)(C)CO)CC1)CC2` [Example 149, N-(4-Cyanobenzyl)-6-((1-(N-(1-hydroxy-2-methylpropan-2-yl)sulfamoyl)cyclopropyl)methyl)-1-methyl-7-oxo-4,5,6,7-tetrahydro-1H-pyrazolo[3,4-c]pyridine-3-carboxamide], in experiment [1] (setting [3]), the IC50 came out at 12 nM. For the same compound, the EC50 in experiment [2] was 166 nM.
The corresponding values for `Cn1nc(C(=O)NCc2ccc(Cl)cc2)c2c1C(=O)N(CC1(S(=O)(=O)N3CC(O)C3)CC1)CC2` [Example 150, N-(4-Chlorobenzyl)-6-((1-((3-hydroxyazetidin-1-yl)sulfonyl)cyclopropyl)methyl)-1-methyl-7-oxo-4,5,6,7-tetrahydro-1H-pyrazolo[3,4-c]pyridine-3-carboxamide] are 6 nM and 67 nM.
The like results for `CNS(=O)(=O)C1(CN2CCc3c(C(=O)NCc4ccc(Cl)cc4)nn(C)c3C2=O)CC1` [Example 151, N-(4-Chlorobenzyl)-1-methyl-6-((1-(N-methylsulfamoyl)cyclopropyl)methyl)-7-oxo-4,5,6,7-tetrahydro-1H-pyrazolo[3,4-c]pyridine-3-carboxamide] were, in that order, 8 nM and 64 nM.
Consider `Cn1nc(C(=O)NCc2ccc(Cl)cc2)c2c1C(=O)N(CC1(S(=O)(=O)NCC(C)(C)O)CC1)CC2` [Example 152, N-(4-Chlorobenzyl)-6-((1-(N-(2-hydroxy-2-methylpropyl)sulfamoyl)cyclopropyl)methyl)-1-methyl-7-oxo-4,5,6,7-tetrahydro-1H-pyrazolo[3,4-c]pyridine-3-carboxamide], for which, in experiment [1] (setting [3]), the IC50 worked out at 30 nM. In addition, the EC50 in experiment [2] was 834 nM.
`Cn1nc(C(=O)NCc2ccc(Cl)cc2)c2c1C(=O)N(CC1(S(=O)(=O)NC(C)(CO)CO)CC1)CC2` [Example 153, N-(4-Chlorobenzyl)-6-((1-(N-(1,3-dihydroxy-2-methylpropan-2-yl)sulfamoyl)cyclopropyl)methyl)-1-methyl-7-oxo-4,5,6,7-tetrahydro-1H-pyrazolo[3,4-c]pyridine-3-carboxamide]: the IC50 in experiment [1] (setting [3]) is 20 nM. For the same compound, the EC50 in experiment [2] amounted to 305 nM.
The compound `Cn1nc(C(=O)NCc2ccc(C#N)cc2)c2c1C(=O)N(CC1(S(=O)(=O)Nc3ccccn3)CC1)CC2` [Example 155, N-(4-cyanobenzyl)-1-methyl-7-oxo-6-((1-(N-(pyridin-2-yl)sulfamoyl)cyclopropyl)methyl)-4,5,6,7-tetrahydro-1H-pyrazolo[3,4-c]pyridine-3-carboxamide] had an IC50 in experiment [1] (CMV-polymerase Biochemical IC50) of 2 nM. The EC50 in experiment [2] was 57 nM.
Regarding `Cn1ccc(NS(=O)(=O)C2(CN3CCc4c(C(=O)NCc5ccc(C#N)cc5)nn(C)c4C3=O)CC2)n1` [Example 156, N-(4-Cyanobenzyl)-1-methyl-6-((1-(N-(1-methyl-1H-pyrazol-3-yl)sulfamoyl)cyclopropyl)methyl)-7-oxo-4,5,6,7-tetrahydro-1H-pyrazolo[3,4-c]pyridine-3-carboxamide], the IC50 in experiment [1] (setting [3]) came to 3 nM. Besides, in experiment [2], the EC50 worked out at 100 nM.
The corresponding values for `Cc1cccc(NS(=O)(=O)C2(CN3CCc4c(C(=O)NCc5ccc(C#N)cc5)nn(C)c4C3=O)CC2)n1` [Example 157, N-(4-Cyanobenzyl)-1-methyl-6-((1-(N-(6-methylpyridin-2-yl)sulfamoyl)cyclopropyl)methyl)-7-oxo-4,5,6,7-tetrahydro-1H-pyrazolo[3,4-c]pyridine-3-carboxamide] are 2 nM and 58 nM.
The corresponding values for `Cn1nc(C(=O)NCc2ccc(Cl)cc2)c2c1C(=O)N(CC1(S(=O)(=O)Nc3ccccn3)CC1)CC2` [Example 158, N-(4-Chlorobenzyl)-1-methyl-7-oxo-6-((1-(N-(pyridin-2-yl)sulfamoyl)cyclopropyl)methyl)-4,5,6,7-tetrahydro-1H-pyrazolo[3,4-c]pyridine-3-carboxamide] are 3 nM and 37 nM.
The corresponding values for `COc1cccnc1NS(=O)(=O)C1(CN2CCc3c(C(=O)NCc4ccc(C#N)cc4)nn(C)c3C2=O)CC1` [Example 159, N-(4-Cyanobenzyl)-6-((1-(N-(3-methoxypyridin-2-yl)sulfamoyl)cyclopropyl)methyl)-1-methyl-7-oxo-4,5,6,7-tetrahydro-1H-pyrazolo[3,4-c]pyridine-3-carboxamide] are 13 nM and 298 nM.
On to `COc1ccc(C)nc1NS(=O)(=O)C1(CN2CCc3c(C(=O)NCc4ccc(C#N)cc4)nn(C)c3C2=O)CC1` [Example 160, N-(4-Cyanobenzyl)-6-((1-(N-(3-methoxy-6-methylpyridin-2-yl)sulfamoyl)cyclopropyl)methyl)-1-methyl-7-oxo-4,5,6,7-tetrahydro-1H-pyrazolo[3,4-c]pyridine-3-carboxamide], for which the IC50 in experiment [1] (setting [3]) stood at 6 nM. Besides, the EC50 in experiment [2] was 118 nM.
In the case of `Cc1ncccc1NS(=O)(=O)C1(CN2CCc3c(C(=O)NCc4ccc(C#N)cc4)nn(C)c3C2=O)CC1` [Example 161, N-(4-Cyanobenzyl)-1-methyl-6-((1-(N-(2-methylpyridin-3-yl)sulfamoyl)cyclopropyl)methyl)-7-oxo-4,5,6,7-tetrahydro-1H-pyrazolo[3,4-c]pyridine-3-carboxamide], the IC50 in experiment [1] (setting [3]) was 2 nM. In addition, the half-maximal effective concentration (EC50) in experiment [2] turned out to be 61 nM.
For the compound `COc1ncccc1NS(=O)(=O)C1(CN2CCc3c(C(=O)NCc4ccc(C#N)cc4)nn(C)c3C2=O)CC1` [Example 162, N-(4-Cyanobenzyl)-6-((1-(N-(2-methoxypyridin-3-yl)sulfamoyl)cyclopropyl)methyl)-1-methyl-7-oxo-4,5,6,7-tetrahydro-1H-pyrazolo[3,4-c]pyridine-3-carboxamide], the IC50 in experiment [1] (setting [3]) was found to be 1 nM. Moreover, in experiment [2], the EC50 is 30 nM.
The like results for `COc1cccc(NS(=O)(=O)C2(CN3CCc4c(C(=O)NCc5ccc(C#N)cc5)nn(C)c4C3=O)CC2)n1` [Example 163, N-(4-Cyanobenzyl)-6-((1-(N-(6-methoxypyridin-2-yl)sulfamoyl)cyclopropyl)methyl)-1-methyl-7-oxo-4,5,6,7-tetrahydro-1H-pyrazolo[3,4-c]pyridine-3-carboxamide] were, in that order, 2 nM and 67 nM.
Consider `Cc1cccnc1NS(=O)(=O)C1(CN2CCc3c(C(=O)NCc4ccc(C#N)cc4)nn(C)c3C2=O)CC1` [Example 164, N-(4-Cyanobenzyl)-1-methyl-6-((1-(N-(3-methylpyridin-2-yl)sulfamoyl)cyclopropyl)methyl)-7-oxo-4,5,6,7-tetrahydro-1H-pyrazolo[3,4-c]pyridine-3-carboxamide], for which the IC50 in experiment [1] (setting [3]) stood at 6 nM. The EC50 in experiment [2] is 157 nM.
As to `Cc1cc(NS(=O)(=O)C2(CN3CCc4c(C(=O)NCc5ccc(Cl)cc5)nn(C)c4C3=O)CC2)no1` [Example 166, N-(4-Chlorobenzyl)-1-methyl-6-((1-(N-(5-methylisoxazol-3-yl)sulfamoyl)cyclopropyl)methyl)-7-oxo-4,5,6,7-tetrahydro-1H-pyrazolo[3,4-c]pyridine-3-carboxamide], the IC50 in experiment [1] (setting [3]) amounted to 1 nM. Also, the EC50 in experiment [2] stood at 88 nM.
For `Cn1nc(C(=O)NCc2ccc(C#N)cc2)c2c1C(=O)N(CC1(S(=O)(=O)Nc3cc(C4CC4)on3)CC1)CC2` [Example 167, N-(4-Cyanobenzyl)-6-((1-(N-(5-cyclopropylisoxazol-3-yl)sulfamoyl)cyclopropyl)methyl)-1-methyl-7-oxo-4,5,6,7-tetrahydro-1H-pyrazolo[3,4-c]pyridine-3-carboxamide], the IC50 in experiment [1] (setting [3]) is 4 nM. Also, in experiment [2], the EC50 came out at 517 nM.
As for `Cn1nc(C(=O)NCc2ccc(C#N)cc2)c2c1C(=O)N(CC1(S(=O)(=O)C3CCOCC3)CC1)CC2` [Example 169, N-(4-Cyanobenzyl)-1-methyl-7-oxo-6-((1-((tetrahydro-2H-pyran-4-yl)sulfonyl)cyclopropyl)methyl)-4,5,6,7-tetrahydro-1H-pyrazolo[3,4-c]pyridine-3-carboxamide], the IC50 in experiment [1] (setting [3]) turned out to be 14 nM. Further, in experiment [2], the EC50 turned out to be 201 nM.
